Results from PubChem BioAssay AID602130 (Sanford-Burnham Center for Chemical Genomics, 2011).
Calls of active or inactive are those of the source.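 Rule for the calls: active = IC50 at or below 20 µM; inactive = the rest.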

Molecular target: Glucose-6-phosphate 1-dehydrogenase (Homo sapiens) (UniProt P11413)
Experiment: blockers of human G6PD activity – biochemical, fluorescence, dose response, set 3, selectivity assay for PfG6PD antimalarial inhibitor project, SAR follow-up (AID 602130)
Conditions: human G6PD enzyme, NADPH resazurin-diaphorase fluorescence

Glucose-6-phosphate 1-dehydrogenase (Homo sapiens), sequence (P11413 whole entry, looked up): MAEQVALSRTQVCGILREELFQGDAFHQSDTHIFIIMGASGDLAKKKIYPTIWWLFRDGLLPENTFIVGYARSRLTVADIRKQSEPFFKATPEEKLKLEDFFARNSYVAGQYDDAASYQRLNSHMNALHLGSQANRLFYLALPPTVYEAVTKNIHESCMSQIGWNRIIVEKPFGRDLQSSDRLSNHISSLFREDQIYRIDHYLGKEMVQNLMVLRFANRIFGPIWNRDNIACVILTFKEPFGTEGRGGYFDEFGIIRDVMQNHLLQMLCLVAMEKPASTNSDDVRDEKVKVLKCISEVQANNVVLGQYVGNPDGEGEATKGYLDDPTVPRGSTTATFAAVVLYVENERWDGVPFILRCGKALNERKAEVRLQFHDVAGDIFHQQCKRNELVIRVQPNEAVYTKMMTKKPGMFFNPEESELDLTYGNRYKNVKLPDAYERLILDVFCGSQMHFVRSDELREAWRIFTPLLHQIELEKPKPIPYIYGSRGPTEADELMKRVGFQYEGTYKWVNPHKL

| SMILES | IC50 |
| --- | --- |
| CCN(CC)CCCC(C)Nc1ccnc2cc(Cl)ccc12 (centres undefined) | > 80 µM (inactive) |
| CCCN1CCCC1CNC(=O)c1ccc2c(c1)NC(=O)/C(=C/c1ccccc1F)S2 (centres undefined) | > 80 µM (inactive) |
| CC(C)(C)OC(=O)N1CCCC1CNC(=O)c1ccc2c(c1)NC(=O)/C(=C/c1ccccc1F)S2 (centres undefined) | > 80 µM (inactive) |
| NC1CCN(C(=O)c2ccc3c(c2)NC(=O)c2ccccc2S3)C1 (centres undefined) | > 80 µM (inactive) |
| CN(C)c1ccccc1CNC(=O)c1ccc2c(c1)NC(=O)/C(=C/c1ccccc1F)S2 | > 80 µM (inactive) |
| O=C(NCCN1CCCCC1)c1ccc2c(c1)NC(=O)c1ccccc1S2 | > 80 µM (inactive) |
| CCC(C)N1CCCC1CNC(=O)c1ccc2c(c1)NC(=O)c1ccccc1S2 (centres undefined) | > 80 µM (inactive) |
| NC1CCN(C(=O)c2ccc3c(c2)NC(=O)/C(=C/c2ccccc2F)S3)C1 (centres undefined) | > 80 µM (inactive) |
| O=C(NCCN1CCOCC1)c1ccc2c(c1)NC(=O)c1ccccc1S2 | > 80 µM (inactive) |
| CCN1CCCC1CNC(=O)c1ccc2c(c1)NC(=O)/C(=C/c1c(F)cccc1F)S2 (centres undefined) | > 80 µM (inactive) |
| CCN1CCCC1CNC(=O)c1ccc2c(c1)NC(=O)/C(=C/c1ccc3ccccc3c1)S2 (centres undefined) | > 80 µM (inactive) |
| CCN1CCCC1CNC(=O)c1ccc2c(c1)NC(=O)/C(=C/c1ccc(F)cc1)S2 (centres undefined) | > 80 µM (inactive) |
| O=C(NCCNC1CCCCC1)c1ccc2c(c1)NC(=O)c1ccccc1S2 | > 80 µM (inactive) |
| CCN1CCC[C@@H]1CNC(=O)c1ccc2c(c1)NC(=O)c1ccccc1S2 | > 80 µM (inactive) |
| CCN1CCCC1CNC(=O)c1ccc2c(c1)NC(=O)C(Cc1ccccc1F)S2 (centres undefined) | > 80 µM (inactive) |
| NCCNC(=O)c1ccc2c(c1)NC(=O)c1ccccc1S2 | > 80 µM (inactive) |
| CCN1CCC[C@H]1CNC(=O)c1ccc2c(c1)NC(=O)/C(=C/c1ccccc1F)S2 | > 80 µM (inactive) |
| CCN1CCC[C@@H]1CNC(=O)c1ccc2c(c1)NC(=O)/C(=C/c1ccccc1F)S2 | > 80 µM (inactive) |
| CCN1CCC[C@H]1CNC(=O)c1ccc2c(c1)NC(=O)c1ccccc1S2 | > 80 µM (inactive) |
| CCC(C)N(CCNC(=O)c1ccc2c(c1)NC(=O)c1ccccc1S2)C1CCCCC1 (centres undefined) | > 80 µM (inactive) |
| CCN(CC)CCNC(=O)c1ccc2c(c1)NC(=O)/C(=C/c1ccccc1F)S2 | > 80 µM (inactive) |
| O=C1Nc2cc(C(=O)NCC3CCCN3)ccc2S/C1=C\c1ccccc1F (centres undefined) | > 80 µM (inactive) |
| CCN1CCCC1CNC(=O)c1ccc2c(c1)NC(=O)/C(=C/c1cccc(F)c1F)S2 (centres undefined) | > 80 µM (inactive) |
| CCN1CCCC1CNC(=O)c1ccc2c(c1)NC(=O)/C(=C/c1cccc(F)c1)S2 (centres undefined) | > 80 µM (inactive) |
